Two compounds from article PMC4684994 (Journal of immunology (Baltimore, Md. : 1950), 2015) can be followed below.

Experiment [1] deals with T1, TRPV4 (transient receptor potential vanilloid 4) (Mus musculus, UniProt Q9EPK8). In words: Inhibition of GSK1016790A-induced calcium influx. The class given is cell-based.
The target of experiment [2] is T1, TRPV4 (transient receptor potential vanilloid 4). In words: Calcium influx. In kind it is cell-based.

T1 sequence (Q9EPK8 whole entry): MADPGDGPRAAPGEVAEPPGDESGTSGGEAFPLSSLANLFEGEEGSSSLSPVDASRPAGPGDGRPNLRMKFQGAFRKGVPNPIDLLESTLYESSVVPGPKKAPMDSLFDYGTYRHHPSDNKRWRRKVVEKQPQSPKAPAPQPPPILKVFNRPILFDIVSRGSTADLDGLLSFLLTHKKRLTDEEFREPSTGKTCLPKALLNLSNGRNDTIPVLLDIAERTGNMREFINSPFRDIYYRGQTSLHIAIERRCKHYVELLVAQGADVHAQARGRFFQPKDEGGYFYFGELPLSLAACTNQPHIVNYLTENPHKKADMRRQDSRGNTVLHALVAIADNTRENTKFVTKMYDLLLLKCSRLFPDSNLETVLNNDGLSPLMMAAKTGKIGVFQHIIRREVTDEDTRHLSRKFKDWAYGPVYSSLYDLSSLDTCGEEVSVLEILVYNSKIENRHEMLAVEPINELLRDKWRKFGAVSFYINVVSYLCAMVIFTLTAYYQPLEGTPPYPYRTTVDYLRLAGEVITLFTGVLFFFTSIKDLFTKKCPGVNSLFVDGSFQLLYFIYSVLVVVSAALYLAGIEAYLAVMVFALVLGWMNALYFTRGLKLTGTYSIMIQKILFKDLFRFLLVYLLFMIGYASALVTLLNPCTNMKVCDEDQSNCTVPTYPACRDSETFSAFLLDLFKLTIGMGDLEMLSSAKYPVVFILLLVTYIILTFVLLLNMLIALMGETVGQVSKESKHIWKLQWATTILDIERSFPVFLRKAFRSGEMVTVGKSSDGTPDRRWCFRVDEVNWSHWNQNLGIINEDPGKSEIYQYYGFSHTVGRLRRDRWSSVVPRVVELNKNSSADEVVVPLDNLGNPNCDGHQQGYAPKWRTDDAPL

For `Cc1c(C(=O)Nc2cccc(C(F)(F)F)c2)cc(-c2ccccc2)n1CCCN1CCOCC1` [HC, HC067047], in experiment [1], the IC50 (in general, the midpoint of a concentration-inhibition curve) worked out at 7 µM.
On to `CC(C)C[C@H](NC(=O)c1cc2ccccc2s1)C(=O)N1CCN(C(=O)[C@H](CO)NS(=O)(=O)c2ccc(Cl)cc2Cl)CC1` [GSK, GSK1016790A], for which the EC50 (in general, the concentration that produces a half-maximal response) in experiment [2] is 0.05 µM.
